ChEMBL document CHEMBL1201862, “PubChem BioAssay data set” (2004)
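Five concentrations, 48 hours, 96-well plates. GI50 is the concentration that inhibits growth by half.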 Activity calls are given as the source filed them. Cut-off read from the data, not from the text of the source: active = GI50 up to about 1.1 µM and inactive = higher.

Tests used:
Assay in all cases: growth of human tumour cells (NCI), 48 h
[1] = tested on: U-251
[2] = tested on: SK-MEL-5
[3] = tested on: HCC 2998
[4] = tested on: CCRF-CEM
[5] = tested on: 786-0
[6] = tested on: RPMI-8226
[7] = tested on: HOP-92
[8] = tested on: Malme-3M
[9] = tested on: SNB-19
[10] = tested on: MDA-MB-231
[11] = tested on: MDA-N
[12] = tested on: BT-549
[13] = tested on: KM12
[14] = tested on: MDA-MB-435
[15] = tested on: NCI-H226
[16] = tested on: Hs-578T
[17] = tested on: A549
[18] = tested on: CAKI-1
[19] = tested on: NCI/ADR-RES
[20] = tested on: MOLT-4

Measured: GI50

Cc1cc(O)c2c(=O)c3ccccc3[nH]c2c1
inactive: [1] 40.8 µM | [2] 14.7 µM | [3] 37.3 µM | [4] 24.1 µM | [5] 15.6 µM | [6] 11.8 µM | [7] 25.9 µM | [8] 32.7 µM | [9] 38.5 µM | [10] 32.4 µM | [11] 42.9 µM | [12] 24.8 µM | [13] 18.5 µM | [14] 27.4 µM | [15] 23.1 µM | [16] 45.3 µM | [17] 29.4 µM | [18] 11.8 µM | [19] 23.5 µM | [20] 36.3 µM

COc1cccc(NC(=O)C(C#N)=C(SC)SC)c1
inactive: [1] > 100 µM | [2] 41.8 µM | [3] > 100 µM | [4] 34 µM | [5] > 100 µM | [7] 46 µM | [8] > 100 µM | [9] 57 µM | [10] > 100 µM | [11] > 100 µM | [12] > 100 µM | [13] > 100 µM | [14] > 100 µM | [15] > 100 µM | [16] > 100 µM | [17] > 100 µM | [18] 95.1 µM | [19] > 100 µM | [20] 62.2 µM

COc1ccc2c(c1)nc1n2C(N)=Nc2ccccc2S1
inactive: [1] 18.8 µM | [2] 7.45 µM | [3] 31.8 µM | [4] 2.55 µM | [5] 9.68 µM | [6] 8.73 µM | [7] 3.79 µM | [8] 62.2 µM | [9] 39.3 µM | [10] 52.5 µM | [11] 16.9 µM | [12] 48.2 µM | [13] 15.4 µM | [14] 32.4 µM | [15] 11.6 µM | [16] 61 µM | [17] 29.7 µM | [18] > 100 µM | [19] 35.2 µM | [20] 3.69 µM

CC(C)/C(Cl)=N/OC(NC(=O)Nc1ccc(Cl)c(Cl)c1)(C(F)(F)F)C(F)(F)F
inactive: [1] 17.3 µM | [2] 15.8 µM | [3] 20.1 µM | [4] 2.16 µM | [5] 8.77 µM | [6] 1.72 µM | [7] 10.4 µM | [8] 2.37 µM | [9] 20.2 µM | [10] 15.5 µM | [11] 16.4 µM | [12] 11.5 µM | [13] 18.2 µM | [14] 16.4 µM | [15] 19.9 µM | [16] 28.6 µM | [17] 23.2 µM | [18] 2.16 µM | [19] 14.6 µM | [20] 3.2 µM

C[C@H]1C2Cc3cc(O)ccc3[C@@]1(C)CCN2CCc1ccc(N)cc1
inactive: [1] 17.6 µM | [2] 14.4 µM | [3] 13.6 µM | [4] 18.5 µM | [5] 15.8 µM | [6] 28.4 µM | [7] 1.71 µM | [8] 18.8 µM | [9] 81.7 µM | [10] 34.9 µM | [11] 20.7 µM | [12] > 100 µM | [13] 16.7 µM | [14] 17.1 µM | [15] > 100 µM | [16] > 100 µM | [17] 28.6 µM | [18] > 100 µM | [19] 25.7 µM | [20] 23.7 µM

C/C(=N\NC(N)=S)c1nc2cccnc2[nH]1
inactive: [1] 40.8 µM | [2] 47.3 µM | [3] > 66.1 µM | [4] 31.1 µM | [5] 51.8 µM | [6] > 96.6 µM | [7] 98.2 µM | [8] > 92.9 µM | [9] > 76.7 µM | [10] > 70.1 µM | [11] > 100 µM | [12] 24.9 µM | [13] 67.5 µM | [14] 52.4 µM | [15] > 56 µM | [16] > 100 µM | [17] 57.5 µM | [18] 33.5 µM | [19] 38.5 µM | [20] 34.8 µM

COc1ccc(-c2cc(=O)c3c(O)cc(O)cc3o2)cc1OC
inactive: [1] 30 µM | [2] 23 µM | [3] > 100 µM | [4] 41.8 µM | [5] 68.9 µM | [6] 64.9 µM | [7] 2.3 µM | [8] > 100 µM | [9] 26.6 µM | [10] > 100 µM | [11] > 100 µM | [12] 17.9 µM | [13] 33 µM | [14] > 100 µM | [15] > 100 µM | [16] 11.5 µM | [17] > 100 µM | [19] 56.8 µM | [20] 44 µM
